From patent US10975035B2, “Bicyclic compounds” (Recurium IP Holdings, LLC, priority 2014, dated 2021)
Counter-ions that a name gives are not always drawn.

System: male ICR mice
Experiment: Formalin paw test
Type: in vivo, mouse
Settings: for Early Phase: early/acute phase (0-10 minutes) after formalin; for Late Phase: late/tonic phase (10-35 minutes) after formalin
Protocol: One test compound or the vehicle was administered to each mouse in each test group (8 mice per group). Non-fasted male ICR mice weighing 23±3 g were used. Test compounds were administered at a concentration of 3 mg/kg, 10 mg/kg, 15 mg/kg, 30 mg/kg, 60 mg/kg, 100 mg/kg, 200 mg/kg or 300 mg/kg; morphine was administered at a concentration of 5 mg/kg; and acetaminophen was administered at a concentration of 200 mg/kg. The control group received the vehicle (5% DMSO/40% PEG400/20% HPbCD/Saline). After 30 or 60 minutes, a 2% formalin solution (0.02 mL) was injected into one hind paw (sub-plantar) of each mouse. Responses were measured every 5 minutes after the formalin injection for 35 minutes.
The results in Table A are for oral administration; the results in Table B are for intraperitoneal administration. In Tables A and B, ‘A’ designates <70 licks/sec, ‘B’ designates ≥70 licks/sec and <165 licks/sec, and ‘C’ designates ≥165 licks/sec.

[1] = intraperitoneal administration, 30 mg/kg

SMILES	Early Phase (oral administration, 200 mg/kg)	Late Phase (oral administration, 200 mg/kg)	Early Phase [1]	Late Phase [1]
CC(=O)NCC12CC(C(C)(C)C)(C1)C2 [Compound 1, N-((3-(tert-butyl)bicyclo[1.1.1]pentan-1-yl)methyl)acetamide]	A (‘A’ designates <70 licks/sec)	A (‘A’ designates <70 licks/sec)		
CC(C)(C)C12CC(CN)(C1)C2 [Compound 1c, (3-(tert-butyl)bicyclo[1.1.1]pentan-1-yl)methanamine]			B (‘B’ designates ≥70 licks/sec and <165 licks/sec)	B (‘B’ designates ≥70 licks/sec and <165 licks/sec)
CC(=O)NCC12CC(C(F)(F)F)(C1)C2 [Compound 2]	B (‘B’ designates ≥70 licks/sec and <165 licks/sec)	B (‘B’ designates ≥70 licks/sec and <165 licks/sec)		
CC(=O)NC12CC(C(F)(F)F)(C1)C2 [Compound 4]	A (‘A’ designates <70 licks/sec)	C (‘C’ designates ≥165 licks/sec)		
CC(=O)NC12CC(C)(C1)C2 [Compound 6]	B (‘B’ designates ≥70 licks/sec and <165 licks/sec)	B (‘B’ designates ≥70 licks/sec and <165 licks/sec)		
CC(=O)NC12CC(C(C)C)(C1)C2 [Compound 8]	A (‘A’ designates <70 licks/sec)	A (‘A’ designates <70 licks/sec)		
O=C(NC12CC(C1)C2)C(F)(F)F [Compound 9]	B (‘B’ designates ≥70 licks/sec and <165 licks/sec)	C (‘C’ designates ≥165 licks/sec)		
CC(C)(C)C(=O)NC12CC(C(C)(C)C)(C1)C2 [Compound 11]	A (‘A’ designates <70 licks/sec)	A (‘A’ designates <70 licks/sec)		
CC(C)(C)C(=O)NC12CC(C1)C2 [Compound 12]	B (‘B’ designates ≥70 licks/sec and <165 licks/sec)	C (‘C’ designates ≥165 licks/sec)		
CC(=O)N(C)C12CC(C(C)(C)C)(C1)C2 [Compound 14]	A (‘A’ designates <70 licks/sec)	A (‘A’ designates <70 licks/sec)		
CC(=O)NC12CC(C(C)(C)O)(C1)C2 [Compound 18]			B (‘B’ designates ≥70 licks/sec and <165 licks/sec)	C (‘C’ designates ≥165 licks/sec)
NCCC12CC(C(F)(F)F)(C1)C2 [Compound 21, 2-(3-(trifluoromethyl)bicyclo[1.1.1]pentan-1-yl)ethanamine, hydrochloride]			B (‘B’ designates ≥70 licks/sec and <165 licks/sec)	B (‘B’ designates ≥70 licks/sec and <165 licks/sec)
